How the values were obtained:
[1] = test system: P. aeruginosa expressing IMP-1, efflux− (MB9799); test: Efflux: concentration of MBL inhibitor which restores susceptibility to imipenem; type: cell-based, Pseudomonas aeruginosa; conditions: imipenem at 2 μg/mL, in the presence of a class A, C, D serine β-lactamase inhibitor closely related to relebactam
Text: (§1) The strain background is Pseudomonas aeruginosa PAO1.

[2] = test system: P. aeruginosa expressing IMP-1, efflux+ (MB9798); type: cell-based, Pseudomonas aeruginosa; conditions: for P. aeruginosa expressing IMP-1, efflux+ (MB9798) MITC95: imipenem at 2 μg/mL, in the presence of a class A, C, D serine β-lactamase inhibitor closely related to relebactam; for Efflux ratio: ratio MITC95 PA_9798/MITC95 PA_9799
Text: as §1

[3] = test system: Escherichia coli expressing NDM-1 (CLB30005, CLB30016); type: cell-based; conditions: with imipenem 1 μg/ml; 95% inhibition of bacterial growth
Procedure, shortened: (§2)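 Colonies from overnight 35 °C blood-agar cultures were suspended in saline, diluted 1:100 into 1.1× CAMHB and exposed to test compound with or without imipenem at 1 μg/ml. After 22–24 h at 35 °C, absorbance was read to find the concentration restoring imipenem susceptibility.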

[4] = test system: Serratia marcescens expressing IMP-1 (CL5741); type: cell-based; conditions: with imipenem 1 μg/ml; 95% inhibition of bacterial growth
Procedure, shortened: as §2

[5] = test system: Klebsiella pneumoniae expressing VIM-1 (IHMA599644); type: cell-based; conditions: with imipenem 1 μg/ml; 95% inhibition of bacterial growth
Procedure, shortened: as §2

VIM-1 = VIM-1 (Pseudomonas aeruginosa (strain ATCC 15692 / DSM 22644 / CIP 104116 / JCM 14847 / LMG 12228 / 1C / PRS 101 / PAO1), UniProt A0A0F7KYQ8); test: biochemical; conditions: CCF2-FA substrate, 2 hours at 25° C
Procedure, shortened: (§3)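 Two-hour, 25° C incubation of enzyme with inhibitor and CCF2-FA (7-hydroxycoumarin–cephalosporin–fluorescein). Fluorescence read-out; IC50 via 4-parameter fit.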

NDM-1 = NDM-1 (Klebsiella pneumoniae, UniProt C7C422); test: biochemical; type: biochemical; conditions: CCF2-FA substrate, 2 hours at 25° C; read-out: NDM-1 IC50
Sequence of NDM-1 (C7C422 whole entry, looked up, species assumed): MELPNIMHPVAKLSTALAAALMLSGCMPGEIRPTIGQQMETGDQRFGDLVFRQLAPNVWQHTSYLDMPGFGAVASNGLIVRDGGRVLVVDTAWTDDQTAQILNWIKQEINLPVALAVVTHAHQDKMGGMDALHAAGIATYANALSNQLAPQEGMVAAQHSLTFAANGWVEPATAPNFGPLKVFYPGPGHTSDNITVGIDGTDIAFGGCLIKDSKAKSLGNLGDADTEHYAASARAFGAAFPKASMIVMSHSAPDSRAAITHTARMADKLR
Procedure, shortened: as §3

IMP-1 = IMP-1 (Serratia marcescens, UniProt P52699); test: biochemical; type: biochemical; conditions: CCF2-FA substrate, 2 hours at 25° C; read-out: IMP-1 IC50
Sequence of IMP-1 (P52699 whole entry, looked up, species assumed): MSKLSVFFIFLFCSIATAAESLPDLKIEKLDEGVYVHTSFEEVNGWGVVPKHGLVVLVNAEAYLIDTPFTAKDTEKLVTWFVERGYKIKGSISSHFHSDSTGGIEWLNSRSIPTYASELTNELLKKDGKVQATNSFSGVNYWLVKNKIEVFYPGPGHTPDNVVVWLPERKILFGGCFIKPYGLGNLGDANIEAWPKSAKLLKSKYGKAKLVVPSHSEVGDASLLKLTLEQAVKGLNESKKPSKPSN
Procedure, shortened: as §3

Structure (SMILES) | P. aeruginosa expressing IMP-1, efflux− (MB9799) MITC95 [1] [µM] | P. aeruginosa expressing IMP-1, efflux+ (MB9798) MITC95 [2] [µM] | Efflux ratio [2] | Escherichia coli expressing NDM-1 (CLB30016) MITC95 [3] [µM] | Serratia marcescens expressing IMP-1 (CL5741) MITC95 [4] [µM] | Klebsiella pneumoniae expressing VIM-1 (IHMA599644) MITC95 [5] [µM] | IC50 (VIM-1) [nM] | IC50 (NDM-1) [nM] | IC50 (IMP-1) [nM]
NCCS(=O)(=O)c1ccc(-c2cccc(N3CCCC3=O)n2)c(-c2nnn[nH]2)c1S(N)(=O)=O.O=C(O)C(F)(F)F [Example 147, 2-((4-(6-(2-oxopyrrolidin-1-yl)pyridin-2-yl)-2-sulfamoyl-3-(1H-tetrazol-5-yl)phenyl)sulfonyl)ethanaminium 2,2,2-trifluoroacetate] | 1.563 | 100 | 63.98 | 6.25 | 6.25 | 6.25 | 0.519 | 3.12 | 4.1
NCCS(=O)(=O)c1ccc(-c2cncc3ccccc23)c(-c2nnn[nH]2)c1S(N)(=O)=O.O=C(O)C(F)(F)F [Example 148, 2-((4-(isoquinolin-4-yl)-2-sulfamoyl-3-(1H-tetrazol-5-yl)phenyl)sulfonyl)ethanaminium 2,2,2-trifluoroacetate] | 1.563 | 3.125 | 2.00 | 3.125 | 3.125 | 3.125 | 0.434 | 0.608 | 0.983
NCCS(=O)(=O)c1ccc(-c2cnc3[nH]ccc3c2)c(-c2nnn[nH]2)c1S(N)(=O)=O.O=C(O)C(F)(F)F [Example 149, 2-((4-(1H-pyrrolo[2,3-b]pyridin-5-yl)-2-sulfamoyl-3-(1H-tetrazol-5-yl)phenyl)sulfonyl)ethanaminium 2,2,2-trifluoroacetate] | 0.7813 | 6.25 | 8.00 | 1.563 | 3.125 | 3.125 | 0.185 | 0.534 | 0.856
NCCS(=O)(=O)c1ccc(-c2cccc3[nH]c(=O)[nH]c23)c(-c2nnn[nH]2)c1S(N)(=O)=O.O=C(O)C(F)(F)F [Example 150, 2-((4-(2-oxo-2,3-dihydro-1H-benzo[d]imidazol-4-yl)-2-sulfamoyl-3-(1H-tetrazol-5-yl)phenyl)sulfonyl)ethanaminium 2,2,2-trifluoroacetate] | 1.563 | 1.563 | 1.00 | 3.125 | 3.125 | 3.125 | 0.44 | 0.497 | 0.931
NCCS(=O)(=O)c1ccc(-c2ccc(-c3nn[nH]n3)cc2)c(-c2nnn[nH]2)c1S(N)(=O)=O.O=C(O)C(F)(F)F [Example 151, 2-((3-sulfamoyl-2-(1H-tetrazol-5-yl)-4′-(2H-tetrazol-5-yl)-[1,1′-biphenyl]-4-yl)sulfonyl)ethanaminium 2,2,2-trifluoroacetate] | 3.125 | 12.5 | 4.00 | 12.5 | 12.5 | 25 | 0.544 | 0.271 | 0.191
NCCS(=O)(=O)c1ccc(-c2cnn3c2CCC3)c(-c2nnn[nH]2)c1S(N)(=O)=O.O=C(O)C(F)(F)F [Example 152, 2-((4-(5,6-dihydro-4H-pyrrolo[1,2-b]pyrazol-3-yl)-2-sulfamoyl-3-(1H-tetrazol-5-yl)phenyl)sulfonyl)ethanaminium 2,2,2-trifluoroacetate] | 1.563 | 50 | 31.99 | 3.125 | 6.25 | 6.25 | 2.01 | 5.83 | 4.79
Cn1cc2cc(-c3ccc(S(=O)(=O)CCN)c(S(N)(=O)=O)c3-c3nnn[nH]3)ccc2n1.O=C(O)C(F)(F)F [Example 153, 2-((4-(2-methyl-2H-indazol-5-yl)-2-sulfamoyl-3-(1H-tetrazol-5-yl)phenyl)sulfonyl)ethanaminium 2,2,2-trifluoroacetate] | 1.563 | 6.25 | 4.00 | 1.563 | 3.125 | 3.125 | 0.309 | 0.593 | 0.457
Cn1cc2ccc(-c3ccc(S(=O)(=O)CCN)c(S(N)(=O)=O)c3-c3nnn[nH]3)cc2n1.O=C(O)C(F)(F)F [Example 154, 2-((4-(2-methyl-2H-indazol-6-yl)-2-sulfamoyl-3-(1H-tetrazol-5-yl)phenyl)sulfonyl)ethanaminium 2,2,2-trifluoroacetate] | 1.563 | 12.5 | 8.00 | 3.125 | 3.125 | 6.25 | 0.43 | 1.13 | 0.676
NCCS(=O)(=O)c1ccc(-c2ccc3[nH]c(=O)oc3c2)c(-c2nnn[nH]2)c1S(N)(=O)=O.O=C(O)C(F)(F)F [Example 155, 2-((4-(2-oxo-2,3-dihydrobenzo[d]oxazol-6-yl)-2-sulfamoyl-3-(1H-tetrazol-5-yl)phenyl)sulfonyl)ethanaminium 2,2,2-trifluoroacetate] | 0.7813 | 3.125 | 4.00 | 0.7813 | 1.563 | 1.563 | 0.289 | 0.814 | 0.226
NCCS(=O)(=O)c1ccc(-c2cccc(-n3cccn3)c2)c(-c2nnn[nH]2)c1S(N)(=O)=O.O=C(O)C(F)(F)F [Example 156, 2-((3′-(1H-pyrazol-1-yl)-3-sulfamoyl-2-(1H-tetrazol-5-yl)-[1,1′-biphenyl]-4-yl)sulfonyl)ethanaminium 2,2,2-trifluoroacetate] | 1.563 | 50 | 31.99 | 0.7813 | 1.563 | 6.25 | 0.743 | 1.08 | 0.981
NCCS(=O)(=O)c1ccc(-c2ccc3c(c2)CC(=O)N3)c(-c2nnn[nH]2)c1S(N)(=O)=O.O=C(O)C(F)(F)F [Example 157, 2-((4-(2-oxoindolin-5-yl)-2-sulfamoyl-3-(1H-tetrazol-5-yl)phenyl)sulfonyl)ethanaminium 2,2,2-trifluoroacetate] | 0.7813 | 12.5 | 16.00 | 1.563 | 1.563 | 3.125 | 0.295 | 1.94 | 1.89
NCCS(=O)(=O)c1ccc(-c2cccc(N3CCS(=O)(=O)CC3)c2)c(-c2nnn[nH]2)c1S(N)(=O)=O.O=C(O)C(F)(F)F [Example 158, 2-((3′-(1,1-dioxidothiomorpholino)-3-sulfamoyl-2-(1H-tetrazol-5-yl)-[1,1′-biphenyl]-4-yl)sulfonyl)ethanaminium 2,2,2-trifluoroacetate] | 3.125 | 200 | 64.00 | 12.5 | 12.5 | 25 | 7.08 | 16.6 | 6.27
